Test system: anti-CETP monoclonal antibody (detects the CETP-derived amino acid sequence FGFPEHLLVDFLQSLS)
Assay: ELISA screening of peptide libraries with anti-CETP monoclonal antibody for mimotope identification
Assay type: binding
Conditions: 7 mer / 8 mer peptide libraries
Text: The problem of the anti-CETP vaccine approach discussed above is that the vaccine formulation comprises a self peptide and therefore must break natural tolerance against self antigens. The invention describes a CETP mimotope that can be used for vaccination: The mimotope shall induce the production of antibodies against CETP. […] Thus, the induction of an anti-CETP antibody response is greatly facilitated. The mimotope is identified with a monoclonal antibody (mAb) and (commercially available) peptide libraries (e.g. according to 16). An anti-CETP monoclonal antibody is used that neutralizes CETP activity (17). This mAb detects a sequence within the C-terminal 26 amino acids of CETP necessary for neutral lipid transfer activity (18).
One monoclonal antibody used for the mimotope identification detects the CETP-derived amino acid sequence […] (=original epitope).
The mimotope has a preferred length of 5 to 15 amino acids. Two different libraries are used in ELISA assays to define mimotope sequences.
Library 1: This 7 mer library contains peptides with the following sequences (amino acid positions 1 to 7):
Library 2: This 8 mer library contains peptides with the following sequences (amino acid positions 1 to 8):
Position 1: all natural aa except of C (19 possibilities) Position 2: all natural aa except of C (19 possibilities) Position 3: all natural aa except of C (19 possibilities) Position 4: all natural aa except of C (19 possibilities) Position 5: all natural aa except of C (19 possibilities) Position 6: all natural aa except of C (19 possibilities) Position 7: all natural aa except of C (19 possibilities) Position 8: all natural aa except of C (19 possibilities)

Substance	mimotope detected by monoclonal antibody
AAQKDKVP [8 mer peptide, CETP mimotope]	detected by a monoclonal antibody
ALKDKLP [7 mer peptide, CETP mimotope]	detected by a monoclonal antibody
ALKDKVP [7 mer peptide, CETP mimotope]	detected by a monoclonal antibody
ALKGKIP [7 mer peptide, CETP mimotope]	detected by a monoclonal antibody
ALKHKIP [7 mer peptide, CETP mimotope]	detected by a monoclonal antibody
ALKHKVP [7 mer peptide, CETP mimotope]	detected by a monoclonal antibody
ALKNKIP [7 mer peptide, CETP mimotope]	detected by a monoclonal antibody
ALKNKLP [7 mer peptide, CETP mimotope]	detected by a monoclonal antibody
ALKSKIP [7 mer peptide, CETP mimotope]	detected by a monoclonal antibody
ALKYKLP [7 mer peptide, CETP mimotope]	detected by a monoclonal antibody
AVKGKLP [7 mer peptide, CETP mimotope]	detected by a monoclonal antibody

From US20090104211A1, “Treatment of atherosclerosis” (AFFIRIS Forschungs-und Entwicklungs GmbH, priority 2004, published 2009)
